pIC50: −log10 of the molar value. Numbered stars: 1 amine (or outer) side, 2 acyl side, 3 side chain; on linkers, the order of the positions; unused ones are H or OH. Square brackets hold non-standard residues; d marks the D form. Peptide text beside a SMILES is read from it. * marks the point of attachment. Butanoyl(3R-OMe,4S-NMe,4-Cy) = CO[C@H](CC(=O)[*:2])[C@H](C1CCCCC1)N(C)[*:1]; Dolaproine = CO[C@@H]([C@@H]1CCCN1)[C@@H](C)C(=O)O; X2 = CO[C@H](CC(=O)[*:2])[C@H](C1CCCC1)N(C)[*:1]; Dil = CC[C@H](C)[C@H](NC)[C@@H](CC(=O)O)OC; X1 = C[C@@H](N*)[C@@H](O)c1ccccc1; NMeV = CN[C@H](C(=O)O)C(C)C; Aib = CC(C)(N)C(=O)O; OtBu = CC(C)(C)O*
Tests used:
Format in all cases: cell-based, Human
Hela = experiment: In vitro cell assay (Cell Titer Glo), Hela; details: 6 days exposure
Procedure: (§1) In vitro cell assay is performed in a 96 well micro titer plate. Human tumor cell lines Hela, A549, MCF-7, HCC-1954 and SK-BR-3 are obtained from ATCC (American Type Culture Collection).
The cells were harvested respectively during the logarithmic growth period and counted with hemocytometer. The cell viability was over 98% by trypan blue exclusion. 90 μl of cell suspensions were added in to 96-well plates, the final cell density was reached to 3000 cells/well. Plates were incubated for 96 hours at 37° C., and 5% CO2.
(§2) To each well was added 10 μL, of DMSO diluted compound (10×). For the sentinel base T0 plate, to each well was added 100 μL Cell Titer Gloand the luminescence signals with Envision reading were recorded.
(§3) […] Plates are read with Envision after adding Cell Titer Glo to each well. IC50 values were calculated using GraphPad Prism 5.

HCC1954 = experiment: In vitro cell assay (Cell Titer Glo), HCC1954; details: 6 days exposure
Procedure: as §1
The cells were harvested respectively during the logarithmic growth period and counted with hemocytometer. […] 90 μl of cell suspensions were added in to 96-well plates, the final cell density was reached to 3000 cells/well. […]
as §2, §3

A549 = experiment: In vitro cell assay (Cell Titer Glo), A549
Procedure: as §1
The cells were harvested respectively during the logarithmic growth period and counted with hemocytometer. The cell viability was over 98% by trypan blue exclusion. 90 μl of cell suspensions were added in to 96-well plates, the final cell density was reached to 3000 cells/well. […]
as §2, §3

SK-BR-3 = experiment: In vitro cell assay (Cell Titer Glo), SK-BR-3; details: 6 days exposure
Procedure: as §1
(§4) The cells were harvested respectively during the logarithmic growth period and counted with hemocytometer. […] 90 μl of cell suspensions were added in to 96-well plates, the final cell density was reached to 3000 cells/well. Plates were incubated for 96 hours at 37° C., and 5% CO2.
as §2, §3

MCF-7 = experiment: In vitro cell assay (Cell Titer Glo), MCF-7
Procedure: as §1, §4, §2, §3

[1] = Homo sapiens, HeLa, 144 h, Table 2
[2] = Homo sapiens, HCC1954, 144 h, Table 2
[3] = Homo sapiens, SK-BR-3, 144 h, Table 2
[4] = Homo sapiens, HeLa, 144 h, Table 01
[5] = Homo sapiens, HCC1954, 144 h, Table 01
[6] = Homo sapiens, SK-BR-3, 144 h, Table 01
[7] = Table 3, payloads and related ADCs, Her2 positive

Row | SMILES | pIC50 (Hela; [1]) | pIC50 (HCC1954; [2]) | pIC50 (A549; Homo sapiens, A549, Table 2) | pIC50 (SK-BR-3; [3]) | pIC50 (MCF-7; Homo sapiens, MCF7, Table 2) | pIC50 (Hela; [4]) | pIC50 (HCC1954; [5]) | pIC50 (A549; Homo sapiens, A549, Table 01) | pIC50 (SK-BR-3; [6]) | pIC50 (MCF-7; Homo sapiens, MCF7, Table 01) | also measured
1 | N.N.[Cl][Pt][Cl] [Cisplatin, reference compound] |  |  |  |  |  |  |  |  |  |  | pIC50 (Hela; Table 01): 6.74; pIC50 (Hela; Table 2): 6.74; pIC50 (HCC1954; Table 01): 5.49; pIC50 (HCC1954; Table 2): 5.49; pIC50 (A549; Table 01, 6 days exposure): 5.55; pIC50 (A549; Table 2, 6 days exposure): 5.55; pIC50 (SK-BR-3; Table 01): 6.07; pIC50 (SK-BR-3; Table 2): 6.07; pIC50 (MCF-7; Table 01, 6 days exposure): 5.45; pIC50 (MCF-7; Table 2, 6 days exposure): 5.45
2 | CO[C@H]([C@@H](C)C(=O)N[C@H](C)[C@@H](O)c1ccccc1)[C@@H]1CCCN1C(=O)C[C@@H](OC)[C@H](C1CCCC1)N(C)C(=O)[C@@H](NC(=O)C(C)(C)N)C(C)C [Compound 17, (S)-2-(2-amino-2-methylpropanamido)-N-((1S,2R)-1-cyclopentyl-4-((S)-2-((1R,2R)-3-((1S,2R)-1-hydroxy-1-phenylpropan-2-ylamino)-1-methoxy-2-methyl-3-oxopropyl)pyrrolidin-1-yl)-2-methoxy-4-oxobutyl)-N,3-dimethylbutanamide] | 8.81 | 9.21 | 8.20 | 9.08 | 8.32 |  |  |  |  |  | 
3 | CO[C@H]([C@@H](C)C(=O)N[C@H](C)[C@@H](O)c1ccccc1)[C@@H]1CCCN1C(=O)C[C@@H](OC)[C@H](C1CCCCC1)N(C)C(=O)[C@@H](NC(=O)C(C)(C)N)C(C)C [Compound 18, (S)-2-(2-amino-2-methylpropanamido)-N-((1S,2R)-1-cyclohexyl-4-((S)-2-((1R,2R)-3-((1S,2R)-1-hydroxy-1-phenylpropan-2-ylamino)-1-methoxy-2-methyl-3-oxopropyl)pyrroli-din-1-yl)-2-methoxy-4-oxobutyl)-N,3-dimethylbutanamide] | 9.32 | 9.33 | 8.94 | 9.09 | 8.50 |  |  |  |  |  | 
4 | CO[C@H]([C@@H](C)C(=O)N[C@@H](Cc1ccccc1)C(=O)OC(C)(C)C)[C@@H]1CCCN1C(=O)C[C@@H](OC)[C@H](C1CCCC1)N(C)C(=O)[C@@H](NC(=O)C(C)(C)N)C(C)C [Compound 21, (S)-tert-butyl2-((2R,3R)-3-((S)-1-((3R,4S)-4-((S)-2-(2-amino-2-methylpropanamido)-N,3-dimethylbutanamido)-4-cyclopentyl-3-methoxybutanoyl)pyrrolidin-2-yl)-3-methoxy-2-methylpropanamido)-3-phenylpropanoate] (H-[Aib]V[X2][Dolaproine]F-OtBu) | 9.25 | 9.53 | 8.95 | 9.65 | 8.89 |  |  |  |  |  | 
5 | CO[C@H]([C@@H](C)C(=O)N[C@@H](Cc1ccccc1)C(=O)OC(C)(C)C)[C@@H]1CCCN1C(=O)C[C@@H](OC)[C@H](C1CCCCC1)N(C)C(=O)[C@@H](NC(=O)C(C)(C)N)C(C)C [Compound 22, (S)-tert-butyl-2-((2R,3R)-3-((S)-1-((3R,4S)-4-((S)-2-(2-amino-2-methylpropanamido)-N, 3-dimethylbutanamido)-4-cyclohexyl-3-methoxybutanoyl)pyrrolidin-2-yl)-3-methoxy-2-methylpropanamido)-3-phenylpropanoate] (H-[Aib]V[Butanoyl(3R-OMe,4S-NMe,4-Cy)][Dolaproine]F-OtBu) | 9.25 | 9.95 | 8.97 | 10.18 | 9.28 |  |  |  |  |  | 
6 | CO[C@H]([C@@H](C)C(=O)N[C@@H](Cc1ccccc1)c1nccs1)[C@@H]1CCCN1C(=O)C[C@@H](OC)[C@H](C1CCCC1)N(C)C(=O)[C@@H](NC(=O)C(C)(C)N)C(C)C [Compound 23] | 9.32 | 9.39 | 8.55 | 9.16 | 8.54 |  |  |  |  |  | 
7 | CO[C@H]([C@@H](C)C(=O)N[C@@H](Cc1ccccc1)c1nccs1)[C@@H]1CCCN1C(=O)C[C@@H](OC)[C@H](C1CCCCC1)N(C)C(=O)[C@@H](NC(=O)C(C)(C)N)C(C)C [Compound 24, (S)-2-(2-amino-2-methylpropanamido)-N-((1S,2R)-1-cyclohexyl-2-methoxy-4-((S)-2-((1R,2R)-1-methoxy-2-methyl-3-oxo-3-((S)-2-phenyl-1-(thiazol-2-yl)ethylamino)propyl)pyrrolidin-1-yl)-4-oxobutyl)-N,3-dimethylbutanamide] | 9.24 | 9.51 | 8.48 | 9.28 | 8.70 |  |  |  |  |  | 
8 | CN[C@H](C(=O)N[C@H](C(=O)N(C)[C@@H](C1CCCC1)[C@@H](CC(=O)N1CCC[C@H]1[C@H](OC)[C@@H](C)C(=O)N[C@H](C)[C@@H](O)c1ccccc1)OC)C(C)C)C(C)C [Compound 33] |  |  |  |  |  | 9.37 | 9.84 | 8.69 | 9.42 | 8.87 | 
9 | CN[C@H](C(=O)N[C@H](C(=O)N(C)[C@@H](C1CCCCC1)[C@@H](CC(=O)N1CCC[C@H]1[C@H](OC)[C@@H](C)C(=O)N[C@H](C)[C@@H](O)c1ccccc1)OC)C(C)C)C(C)C [Compound 34] |  |  |  |  |  | 9.41 | 9.72 | 8.78 | 9.48 | 8.84 | 
10 | CN[C@H](C(=O)N[C@H](C(=O)N(C)[C@@H](C1CCCC1)[C@@H](CC(=O)N1CCC[C@H]1[C@H](OC)[C@@H](C)C(=O)N[C@@H](Cc1ccccc1)c1nccs1)OC)C(C)C)C(C)C [Compound 35] |  |  |  |  |  | 9.99 | 9.92 | 9.17 | 9.72 | 9.04 | 
11 | CN[C@H](C(=O)N[C@H](C(=O)N(C)[C@@H](C1CCCCC1)[C@@H](CC(=O)N1CCC[C@H]1[C@H](OC)[C@@H](C)C(=O)N[C@@H](Cc1ccccc1)c1nccs1)OC)C(C)C)C(C)C [Compound 36] |  |  |  |  |  | 9.84 | 9.99 | 9.25 | 9.71 | 9.08 | 
12 | CN[C@H](C(=O)N[C@H](C(=O)N(C)[C@@H](C1CCCC1)[C@@H](CC(=O)N1CCC[C@H]1[C@H](OC)[C@@H](C)C(=O)N[C@@H](Cc1ccccc1)C(=O)OC(C)(C)C)OC)C(C)C)C(C)C [Compound 37] (H-[NMeV]V[X2][Dolaproine]F-OtBu) |  |  |  |  |  | 9.70 | 10.02 | 9.06 | 9.93 | 9.34 | 
13 | CN[C@H](C(=O)N[C@H](C(=O)N(C)[C@@H](C1CCCCC1)[C@@H](CC(=O)N1CCC[C@H]1[C@H](OC)[C@@H](C)C(=O)N[C@@H](Cc1ccccc1)C(=O)OC(C)(C)C)OC)C(C)C)C(C)C [Compound 38] (H-[NMeV]V[Butanoyl(3R-OMe,4S-NMe,4-Cy)][Dolaproine]F-OtBu) |  |  |  |  |  | 10.11 | 9.89 | 9.56 | 10.01 | 9.19 | 
14 | CC[C@H](C)[C@@H]([C@@H](CC(=O)N1CCC[C@H]1[C@H](OC)[C@@H](C)C(=O)N[C@H](C)[C@@H](O)c1ccccc1)OC)N(C)C(=O)[C@@H](NC(=O)[C@@H](NC)C(C)C)C(C)C [MMAE, monomethylauristatin E, reference compound] (H-[NMeV]V[Dil][Dolaproine]-X1) |  |  |  |  |  |  |  |  |  |  | pIC50 (Hela; Table 01): 10.00; pIC50 (HCC1954; Table 01): 10.14; pIC50 (HCC1954; [7]): 10.14; pIC50 (A549; Table 01, 6 days exposure): 9.29; pIC50 (SK-BR-3; Table 01): 9.99; pIC50 (SK-BR-3; [7]): 9.99; pIC50 (MCF-7; Table 01, 6 days exposure): 9.49; pIC50 (MCF-7; Table 3, payloads and related ADCs, 6 days exposure, does not over-express Her2): 9.49

From patent US20160158307A1, “Potent and Efficient Cytotoxic Peptides and Antibody-Drug Conjugates thereof and Their Synthesis” (priority 2014, published 2016)
